Source: US8637043B2, “Compositions useful as ligands for the formyl peptide receptor like 1 receptor and methods of use thereof” (Chemocentryx, Inc., priority 2001, dated 2014)
“And” between values parts separate entries of the source, which are not always exact repeats. Identical values can stand only once. One block for each substance: values may come before it. Ends that are not written are not given here.

Legend:
human FPRL1 = target: T1, human FPRL1 (Homo sapiens, UniProt P25090); assay: Calcium flux in FPRL1-L1.2 transfectants; format: cell-based; conditions: for Designation and FPRL1 Activity: qualitative rating high, moderate, low, see Example 9; for Notes: activity: qualitative rating, Table 6
T1 construct: Full length cDNA encoding FPRL1 was cloned, using the polymerase chain reaction (PCR), from genomic DNA isolated from undifferentiated HL-60 cells; expressed in transfected cells; linearized FPRL1/pcDNA3.1, electroporation
T1 sequence (P25090 1-351): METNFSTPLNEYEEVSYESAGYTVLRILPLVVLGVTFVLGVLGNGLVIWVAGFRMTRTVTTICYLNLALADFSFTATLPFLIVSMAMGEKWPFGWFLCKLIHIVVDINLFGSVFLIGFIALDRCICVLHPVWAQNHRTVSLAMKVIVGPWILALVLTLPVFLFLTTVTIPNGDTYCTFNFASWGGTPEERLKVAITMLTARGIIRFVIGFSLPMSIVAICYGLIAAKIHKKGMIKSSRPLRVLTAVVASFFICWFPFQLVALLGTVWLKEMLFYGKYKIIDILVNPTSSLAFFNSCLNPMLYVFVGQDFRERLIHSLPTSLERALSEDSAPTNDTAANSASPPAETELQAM
Procedure: Ca^2+ mobilization responses were performed using the intracellular ratiometric fluorescent dye, lndo-1. Cells were loaded with Indo-1/AM (3 μM; Molecular Probes, Eugene, Oreg.) in culture medium (45 min, 20° C., 10^7 cells/ml). After dye loading, cells were washed once with 10 ml PBS) and resuspended at 10^6 cell/ml in HBSS containing 1% FBS. Cytosolic [Ca^2+] release was determined using excitation at 350 nm using a Photon Technology International fluorimeter (excitation at 350 nm, ratioed dual emission at 400 and 490 nm).
The functional activities of CKβ8-1 (25-116) were investigated in human FPRL1-L1.2 transfectants and in native L1.2 cells. Stable expression of formyl peptide-like receptor 1 (FPRL1) in L.1.2 cell was obtained as follows. Full length cDNA encoding FPRL1 was cloned, using the polymerase chain reaction (PCR), from genomic DNA isolated from undifferentiated HL-60 cells. […] Twenty micrograms of the FPRL1/pcDNA3.1 construct were linearized by digestion with Bsm1 (New England Biolabs, Beverly, Mass.) and used to transfect the murine B cell line L1.2 as follows. Twenty five million cells were washed twice and resuspended in 0.8 ml of PBS. The cells were incubated for 10 min at room temperature with the linearized FPRL/pcDNA3.1 construct DNA and transferred to a 0.4-cm cuvette, and a single electroporation pulse was applied at 250 V, 960 μF. Electroporated cells were incubated for 10 min at room temperature and transferred to culture at 37° C. in RPMI supplemented with 10% FCS. Geneticin (G418) was added to a final concentration of 800 μg/ml 48 h posttransfection and the cells plated into 96-well plates at 25,000 cells/well. After 2-3 weeks under drug selection, stable geneticin-resistant FPLR1 expressing cells were assessed for their ability to mobilize Ca^++ in response to SHAAGtide or CKbeta 8-1 at concentrations of 1 to 1000 nM.
A calcium flux test was performed on these transfectants using the method described in Example 1.
Stable expression of human FPRL1 in L1.2 cells was obtained as in Example 6. Calcium flux tests were conducted on the transfectants using the method described in Example 1. Chemokines (CKβ8(1-99), CKβ8(25-99), CKβ8-1(1-116) and CKβ8-1(25-116), were prepared as in Example 1. W peptides 1 and 2 were obtained as in Example 6. In addition, and the following SHAAGtide sequences and truncated variants (prepared as in Example 8) were tested:
All ligands were added in a dose response manner and the peak calcium flux response determined.

dendritic cells = assay: Dendritic cell infiltration after intradermal injection in mice (anti-DEC-205 staining); format: in vivo; set-up: key to Dendritic cell infiltration Score / Infiltration Score: 0 = none, 1 = slight, 2 = mild, 3 = moderate, 4 = severe; conditions: for Infiltration Score: BALB/c mice, various doses
Description: The following chemokines were obtained from R&D Systems (Minneapolis, Minn.): vMCK-2, mC10, and GM-CSF. The following peptides were synthesized at Phoenix Pharmaceuticals (San Carlos, Calif.): SHAAYtide (SEQ ID NO:6), several […] MODIFIED peptides of SHAAGtide variant (SEQ ID NO:) (i.e. cyclized using the MPR-Cys linked cyclization), control peptide (SEQ ID NO:33, […]Gin Pro Gly lie Lys Arg Arg Trp Leu Met), randomly conjugated to OVA in either a 1:1 or 1:4 ratio (by MBS coupling method), and conjugated to OVA at the C-terminus (C-term, made by the addition of a cysteine), and SHAAGtide variant (SEQ ID NO:3). In three separate experiments, chemokines or peptides (2 μg or 20 μg in PBS) were injected intradermally into BALB/c or C57BI/6 mice (Jackson Laboratory; Bar Harbor, Me.). In each experiment, one mouse received an injection of PBS only as a negative control. At various times after injection, the mice were euthanized, and the area around the injection site was excised and subjected to immunohistology. Frozen sections were stained with anti-DEC-205 antibody (Bio-Whittaker Molecular Applications; Rockland, Me.) that recognizes a dendritic cell-specific molecule (Kraal et al., 1986). A relative staining number on a scale of […] was assigned to each section (0, none; 1, slight; 2, mild; 3, moderate; 4, severe).

OVA-specific IgG = assay: Adjuvant activity, anti-OVA antibodies in mice (Example 17); format: in vivo, BALB/c mice; conditions: 10 μg OVA
Procedure: First, 96-well U-bottom plastic dishes were coated overnight with 1 μg ovalbumin (OVA) in 100 μl PBS per well. The next day, the dishes were rinsed with PBS, blocked with PBS containing 5% fetal bovine serum (FBS), and rinsed with PBS again. Plasma samples from experimental animals (see below) were diluted 10^2- to 10^5-fold and added to the dishes for 2 hours, after which the dishes were again rinsed with PBS. The dishes were then incubated with biotinylated goat anti-monkey IgG detection antibodies, then rinsed with PBS and incubated with streptavidin-linked horseradish peroxidase (SA-HRP). After a final rinsing with PBS, the HRP substrate 2,2′-Azinobis [3-ethylbenzothiazoline-6-sulfonic acid]-diammonium salt was added. Color development was measured with an ELISA plate reader at 405 nm, and optical density (OD) units were converted to arbitrary “antibody units,” where a unit is defined as the inverse of the plasma dilution that produces 50% of the maximum response from a standard curve obtained by serial dilution of an ascites collected from OVA-injected mice and containing OVA-specific antibodies.
The experiment described in Example 16 was repeated, except the formulations were administered to BALB/c mice with 10 μg (Table 20) or 500 μg (Table 21) of OVA with in 100 μl. IFA was not used.
BALB/c mice were given OVA with or without SHAAYtide (SEQ ID NO:6) either intraperitoneally on days 0 and 21 (Table 20), or sub-cutaneously on days 0 and 14 (Table 21). Blood samples were collected at the indicated time points. The results, reported in antibody units, are given in Tables 20 and 21, showing IgG levels.

[1] = intraperitoneally on days 0 and 21, 0 day

- IC50 (human FPRL1; peak calcium flux, dose response, read-out: Induction of Calcium Flux in FPRL1 L1.2 Cells, IC 50): > 50 µM
Substance: RRKIGPQMTLSHAAG [SEQ ID NO: 2]

Substance: SHAAYtide (SEQ ID NO: 6), cyclized: structurally modified peptide, cyclized using the MPR-Cys linked cyclization (MLWRRKIGPQMTLSHAAY; also: cyclized using MPR-Cys linked cyclization, MPR and Cys not in given letters)
- Infiltration Score (dendritic cells; 30 hours): 1 and 2

- Designation and FPRL1 Activity (human FPRL1): High
- Notes: activity (human FPRL1): High
Substance: MLWRRKIGPQMTLSH [SEQ ID NO: 3]

- Designation and FPRL1 Activity (human FPRL1): moderate FPRL1 activity
- Designation and FPRL1 Activity (human FPRL1; listed as CCXP8): Moderate
- Notes: activity (human FPRL1): Moderate
Substance: MLWRRKIGPQM [SEQ ID NO: 8]

- Designation and FPRL1 Activity (human FPRL1): Low
Substance: WRRKIG [SEQ ID NO: 10, Trp Arg Arg Lys Ile Gly]

- Designation and FPRL1 Activity (human FPRL1): Low
Substance: WRRKIGPQMTLSHAAG [SEQ ID NO: 7]

- Designation and FPRL1 Activity (human FPRL1; listed as CCXP11): Moderate
- Notes: activity (human FPRL1): Moderate
Substance: LWRRKIGPQMTLSH [SEQ ID NO: 11]
- Designation and FPRL1 Activity (human FPRL1): does not result in a complete loss in FRPL1 activity

Substance: 2 μg SHAAYtide (SEQ ID NO: 6): 2 μg SHAAYtide without OVA (MLWRRKIGPQMTLSHAAY; SHAAGtide variant)
- anti-OVA IgG, individual mouse (OVA-specific IgG; [1]): 7 antibody units (2×) and 14 antibody units and 24 antibody units
- anti-OVA IgG, average (OVA-specific IgG; intraperitoneally, 0 day): 13 antibody units
- anti-OVA IgG, average (OVA-specific IgG; intraperitoneally, 10 d): 68 antibody units
- anti-OVA IgG, increase from day 0 (OVA-specific IgG; intraperitoneally, 10 d): 55 antibody units
- anti-OVA IgG, individual mouse (OVA-specific IgG; intraperitoneally, 10 d): 0 antibody units (3×) and 273 antibody units
- anti-OVA IgG, average (OVA-specific IgG; intraperitoneally, 15 d): 0 antibody units
- anti-OVA IgG, increase from day 0 (OVA-specific IgG; intraperitoneally, 15 d): 0 antibody units
- anti-OVA IgG, individual mouse (OVA-specific IgG; intraperitoneally, 15 d): 0 antibody units
- anti-OVA IgG, average (OVA-specific IgG; intraperitoneally, 27 d): 51 antibody units
- anti-OVA IgG, increase from day 0 (OVA-specific IgG; intraperitoneally, 27 d): 38 antibody units
- anti-OVA IgG, individual mouse (OVA-specific IgG; intraperitoneally, 27 d): 47 antibody units (2×) and 58 antibody units
- anti-OVA IgG, average (OVA-specific IgG; intraperitoneally, 31 d): 19 antibody units
- anti-OVA IgG, increase from day 0 (OVA-specific IgG; intraperitoneally, 31 d): 6 antibody units
- anti-OVA IgG, individual mouse (OVA-specific IgG; intraperitoneally, 31 d): 47 antibody units and 17 antibody units and 12 antibody units and 0 antibody units
- anti-OVA IgG, average (OVA-specific IgG; intraperitoneally, 36 d): 42 antibody units
- anti-OVA IgG, increase from day 0 (OVA-specific IgG; intraperitoneally, 36 d): 29 antibody units
- anti-OVA IgG, individual mouse (OVA-specific IgG; intraperitoneally, 36 d): 60 antibody units (2×) and 46 antibody units and 0 antibody units

Substance: 20 μg SHAAYtide (SEQ ID NO: 6): 20 μg SHAAYtide without OVA (MLWRRKIGPQMTLSHAAY; SHAAGtide variant)
- anti-OVA IgG, individual mouse (OVA-specific IgG; [1]): 31 antibody units and 47 antibody units and 139 antibody units and 64 antibody units
- anti-OVA IgG, average (OVA-specific IgG; intraperitoneally, 0 day): 70 antibody units
- anti-OVA IgG, average (OVA-specific IgG; intraperitoneally, 10 d): 158 antibody units
- anti-OVA IgG, increase from day 0 (OVA-specific IgG; intraperitoneally, 10 d): 88 antibody units
- anti-OVA IgG, individual mouse (OVA-specific IgG; intraperitoneally, 10 d): 0 antibody units (2×) and 40 antibody units and 592 antibody units
- anti-OVA IgG, average (OVA-specific IgG; intraperitoneally, 15 d): 42 antibody units
- anti-OVA IgG, increase from day 0 (OVA-specific IgG; intraperitoneally, 15 d): 0 antibody units
- anti-OVA IgG, individual mouse (OVA-specific IgG; intraperitoneally, 15 d): 0 antibody units (3×) and 168 antibody units
- anti-OVA IgG, average (OVA-specific IgG; intraperitoneally, 27 d): 112 antibody units
- anti-OVA IgG, increase from day 0 (OVA-specific IgG; intraperitoneally, 27 d): 41 antibody units
- anti-OVA IgG, individual mouse (OVA-specific IgG; intraperitoneally, 27 d): 122 antibody units and 110 antibody units and 116 antibody units and 98 antibody units
- anti-OVA IgG, average (OVA-specific IgG; intraperitoneally, 31 d): 40 antibody units
- anti-OVA IgG, increase from day 0 (OVA-specific IgG; intraperitoneally, 31 d): 0 antibody units
- anti-OVA IgG, individual mouse (OVA-specific IgG; intraperitoneally, 31 d): 12 antibody units and 32 antibody units and 69 antibody units and 47 antibody units
- anti-OVA IgG, average (OVA-specific IgG; intraperitoneally, 36 d): 0 antibody units
- anti-OVA IgG, increase from day 0 (OVA-specific IgG; intraperitoneally, 36 d): 0 antibody units
- anti-OVA IgG, individual mouse (OVA-specific IgG; intraperitoneally, 36 d): 0 antibody units

- Designation and FPRL1 Activity (human FPRL1): Low
Substance: WRRKIGPQM [SEQ ID NO: 9]

Substance: GM-CSF
- Infiltration Score (dendritic cells; 6 hours): 2 and 1
- Infiltration Score (dendritic cells; 30 hours): 1
- infiltration of DEC-205-labeled cells (dendritic cells; summary of Tables 15, 16 and 17): excellent infiltration

- Designation and FPRL1 Activity (human FPRL1): Moderate
- Notes: activity (human FPRL1): Moderate
Substance: MLWRRKIGPQMT [SEQ ID NO: 5]

- Designation and FPRL1 Activity (human FPRL1): Low
Substance: IGPQMTLSHAAG [SEQ ID NO: 4]
